# Data as given in PubChem BioAssay (NCI).
#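 Grown in 96-well plates, cells were treated for 48 hours with each compound at five concentrations. Insufficient inhibition: endpoint recorded as highest concentration tested. TGI: concentration producing complete growth inhibition.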
# Key:
# Test in all cases: inhibition of tumour cell growth, NCI panel, 48 h
# A498 renal = tested on: A498 renal
# SR leukemia = tested on: SR leukemia
# HL-60(TB) leukemia = tested on: HL-60(TB) leukemia
# ACHN renal = tested on: ACHN renal
# MCF7 breast = tested on: MCF7 breast
# SF-539 CNS = tested on: SF-539 CNS
# UACC-257 melanoma = tested on: UACC-257 melanoma
# MDA-MB-435 = tested on: MDA-MB-435
# NCI-H522 lung = tested on: NCI-H522 lung
# IGROV1 ovarian = tested on: IGROV1 ovarian
# MOLT-4 leukemia = tested on: MOLT-4 leukemia
# UO-31 renal = tested on: UO-31 renal
# MALME-3M melanoma = tested on: MALME-3M melanoma
# BT-549 breast = tested on: BT-549 breast
# DU-145 prostate = tested on: DU-145 prostate
# TK-10 renal = tested on: TK-10 renal
# SF-295 CNS = tested on: SF-295 CNS
# CCRF-CEM leukemia = tested on: CCRF-CEM leukemia
# U251 CNS = tested on: U251 CNS
# SK-OV-3 ovarian = tested on: SK-OV-3 ovarian
# M14 melanoma = tested on: M14 melanoma
# SN12C renal = tested on: SN12C renal
# MDA-N = tested on: MDA-N
# HCT-15 colon = tested on: HCT-15 colon
# PC-3 prostate = tested on: PC-3 prostate
# RPMI-8226 leukemia = tested on: RPMI-8226 leukemia
# SNB-19 CNS = tested on: SNB-19 CNS
# SNB-75 CNS = tested on: SNB-75 CNS
# SK-MEL-5 melanoma = tested on: SK-MEL-5 melanoma
# NCI-H460 lung = tested on: NCI-H460 lung
# OVCAR-5 ovarian = tested on: OVCAR-5 ovarian
# SK-MEL-2 melanoma = tested on: SK-MEL-2 melanoma
# SW-620 colon = tested on: SW-620 colon
# COLO 205 colon = tested on: COLO 205 colon
# UACC-62 melanoma = tested on: UACC-62 melanoma
# OVCAR-3 ovarian = tested on: OVCAR-3 ovarian
# SF-268 CNS = tested on: SF-268 CNS
# NCI/ADR-RES ovarian = tested on: NCI/ADR-RES ovarian
# HOP-62 NSCLC = tested on: HOP-62 NSCLC
# MDA-MB-231 breast = tested on: MDA-MB-231 breast
# OVCAR-4 ovarian = tested on: OVCAR-4 ovarian
# KM12 colon = tested on: KM12 colon
# NCI-H23 lung = tested on: NCI-H23 lung
# K-562 leukemia = tested on: K-562 leukemia
# OVCAR-8 ovarian = tested on: OVCAR-8 ovarian
# LOX IMVI melanoma = tested on: LOX IMVI melanoma
# A549 NSCLC = tested on: A549 NSCLC
# HS 578T breast = tested on: HS 578T breast
# HOP-92 NSCLC = tested on: HOP-92 NSCLC
# T-47D breast = tested on: T-47D breast
# HT29 colon = tested on: HT29 colon
# CAKI-1 renal = tested on: CAKI-1 renal
# SK-MEL-28 melanoma = tested on: SK-MEL-28 melanoma
compound,measurement,setting,value
O=C(Cc1nc2cccnc2nc1/C=C(\O)c1ccccc1)c1ccccc1,TGI,A498 renal,74 µM
same,TGI,SR leukemia,> 100 µM
same,TGI,HL-60(TB) leukemia,66.6 µM
same,TGI,ACHN renal,> 100 µM
same,TGI,MCF7 breast,27.6 µM
same,TGI,SF-539 CNS,> 100 µM
same,TGI,UACC-257 melanoma,> 100 µM
same,TGI,MDA-MB-435,82 µM
same,TGI,NCI-H522 lung,35.6 µM
same,TGI,IGROV1 ovarian,> 100 µM
same,TGI,MOLT-4 leukemia,> 100 µM
same,TGI,UO-31 renal,79.6 µM
same,TGI,MALME-3M melanoma,> 100 µM
same,TGI,BT-549 breast,38.4 µM
same,TGI,DU-145 prostate,> 100 µM
same,TGI,TK-10 renal,> 100 µM
same,TGI,SF-295 CNS,82.1 µM
same,TGI,CCRF-CEM leukemia,29.9 µM
same,TGI,U251 CNS,> 100 µM
same,TGI,SK-OV-3 ovarian,> 100 µM
same,TGI,M14 melanoma,> 100 µM
same,TGI,SN12C renal,59.1 µM
same,TGI,MDA-N,> 100 µM
same,TGI,HCT-15 colon,> 100 µM
same,TGI,PC-3 prostate,> 100 µM
same,TGI,RPMI-8226 leukemia,29 µM
same,TGI,SNB-19 CNS,> 100 µM
same,TGI,SNB-75 CNS,96.4 µM
same,TGI,SK-MEL-5 melanoma,38 µM
same,TGI,NCI-H460 lung,22.7 µM
same,TGI,OVCAR-5 ovarian,> 100 µM
same,TGI,SK-MEL-2 melanoma,65.4 µM
same,TGI,SW-620 colon,> 100 µM
same,TGI,COLO 205 colon,25.1 µM
same,TGI,UACC-62 melanoma,18.6 µM
same,TGI,OVCAR-3 ovarian,13.3 µM
same,TGI,SF-268 CNS,46 µM
same,TGI,NCI/ADR-RES ovarian,> 100 µM
same,TGI,HOP-62 NSCLC,58.4 µM
same,TGI,MDA-MB-231 breast,> 100 µM
same,TGI,OVCAR-4 ovarian,> 100 µM
same,TGI,KM12 colon,> 100 µM
same,TGI,NCI-H23 lung,> 100 µM
same,TGI,K-562 leukemia,> 100 µM
same,TGI,OVCAR-8 ovarian,> 100 µM
same,TGI,LOX IMVI melanoma,87 µM
same,TGI,A549 NSCLC,> 100 µM
same,TGI,HS 578T breast,> 100 µM
same,TGI,HOP-92 NSCLC,59 µM
same,TGI,T-47D breast,> 100 µM
same,TGI,HT29 colon,> 100 µM
same,TGI,CAKI-1 renal,30.5 µM
same,TGI,SK-MEL-28 melanoma,> 100 µM
